Results: patent US8952024B2, “Herbicidal pyrimidone derivatives” (E I du Pont de Nemours and Company, priority 2009, dated 2015)
Read-outs that look alike come from different tables or passages of the source.

Columns and labels:
Type in all cases: in vivo
[1] = test system: barnyardgrass (Echinochloa crus-galli); experiment: Test A pre-/postemergence plant response; details: Echinochloa crus-galli, 240 h, read-out: Plant response rating, Barnyardgrass; for pest or weed control at 125 g/ha: 125 g ai/ha; for pest or weed control at 500 g/ha: 500 g ai/ha, approx. ten days
In short: (§1)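 Seeds planted in loam soil/sand blend; test chemicals in non-phytotoxic solvent mixture with surfactant applied as directed soil spray preemergence and, concurrently, postemergence to plants 2–10 cm tall at one- to two-leaf stage. Greenhouse ~10 days; visual injury vs untreated controls, 0 (no effect) to 100 (complete control).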

corn (Zea mays) = experiment: Test A pre-/postemergence plant response; details: Zea mays, 240 h; for Corn plant response rating (crop injury, 0 = no effect, 100 = complete kill) at 125 g/ha: 125 g ai/ha
In short: as §1

[2] = test system: giant foxtail (Setaria faberii); experiment: Test A pre-/postemergence plant response; details: Setaria faberi, 240 h, read-out: Plant response rating, Foxtail, Giant; for pest or weed control at 125 g/ha: 125 g ai/ha; for pest or weed control at 500 g/ha: 500 g ai/ha, approx. ten days
In short: as §1

[3] = test system: large crabgrass (Digitaria sanguinalis); experiment: Test A pre-/postemergence plant response; details: Digitaria sanguinalis, 240 h, read-out: Plant response rating, Crabgrass, Large; for pest or weed control at 125 g/ha: 125 g ai/ha; for pest or weed control at 500 g/ha: 500 g ai/ha, approx. ten days
In short: as §1

[4] = test system: morningglory (Ipomoea spp.); experiment: Test A pre-/postemergence plant response; details: Ipomoea, 240 h, read-out: Plant response rating, Morningglory; for pest or weed control at 125 g/ha: 125 g ai/ha; for pest or weed control at 500 g/ha: 500 g ai/ha, approx. ten days
In short: as §1

[5] = test system: pigweed (Amaranthus retroflexus); experiment: Test A pre-/postemergence plant response; details: Amaranthus retroflexus, 240 h, read-out: Plant response rating, Pigweed; for pest or weed control at 125 g/ha: 125 g ai/ha; for pest or weed control at 500 g/ha: 500 g ai/ha, approx. ten days
In short: as §1

[6] = test system: velvetleaf (Abutilon theophrasti); experiment: Test A pre-/postemergence plant response; details: Abutilon theophrasti, 240 h, read-out: Plant response rating, Velvetleaf; for pest or weed control at 125 g/ha: 125 g ai/ha; for pest or weed control at 500 g/ha: 500 g ai/ha, approx. ten days
In short: as §1

[7] = test system: wheat (Triticum aestivum); experiment: Test A pre-/postemergence plant response; details: Triticum aestivum, 240 h, read-out: Plant response rating, Wheat; for plant injury at 125 g/ha: 125 g ai/ha; for plant injury at 500 g/ha: 500 g ai/ha, approx. ten days
In short: as §1

[8] = test system: bermudagrass (Cynodon dactylon); experiment: Test B pre-/postemergence plant response; details: for pest or weed control at 31 g/ha: 31 g ai/ha; for pest or weed control at 125 g/ha: 125 g ai/ha
In short: (§2)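 Visual ratings on a 0–100 scale (100 = complete control) were made versus untreated controls 13–15 days after treatment in a greenhouse. Compounds in surfactant-containing non-phytotoxic solvent were applied preemergence to seeds in loam–sand blend or postemergence to 1- to 4-leaf plants (2–18 cm).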

[9] = test system: cocklebur (Xanthium strumarium); experiment: Test B pre-/postemergence plant response; details: for pest or weed control at 31 g/ha: 31 g ai/ha; for pest or weed control at 125 g/ha: 125 g ai/ha
In short: as §2

[10] = test system: wheat (Triticum aestivum); experiment: Test B pre-/postemergence plant response; details: for plant injury at 125 g/ha: 125 g ai/ha
In short: as §2

[11] = post-emergence, Postemergence, 0 to 100 scale where 0 is no effect and 100 is complete control
[12] = post-emergence, Postemergence, 0 to 100 scale, 0 = no effect, 100 = complete control
[13] = pre-emergence, Preemergence, 0 to 100 scale, 0 = no effect, 100 = complete control
[14] = pre-emergence, Preemergence, visual injury, 0 to 100 scale (0 no effect, 100 complete control)
[15] = 62 g ai/ha, postemergence, 0 is no effect, 100 is complete control, 13 to 15 days
[16] = Preemergence, 250 g ai/ha, 0 to 100 scale

Compound O=C1CCCC(O)=C1C(=O)c1cnc(-c2cccnc2)n(-c2ccccc2)c1=O [Compound 113, 5-[(2-hydroxy-6-oxo-1-cyclohexen-1-yl)carbonyl]-3-phenyl-2-(3-pyridinyl)-4(3H)-pyrimidone] has a pest or weed control at 125 g/ha [1, 11] of 70%, a pest or weed control at 500 g/ha [1, 12] of 90% and a pest or weed control at 125 g/ha [1, 13] of 10%. The pest or weed control at 500 g/ha [1, 14] was 90%, the Corn plant response rating (crop injury, 0 = no effect, 100 = complete kill) at 125 g/ha (corn (Zea mays); [11]) was 0% and the Corn plant response rating (crop injury, 0 = no effect, 100 = complete kill) at 500 g/ha (corn (Zea mays); post-emergence, Postemergence, 500 g ai/ha, 0 to 100 scale, 0 = no effect, 100 = complete control, approx. ten days) was 60%. For the same compound, the Corn plant response rating (crop injury, 0 = no effect, 100 = complete kill) at 125 g/ha (corn (Zea mays); [13]) was 0%, the pest or weed control at 125 g/ha [2, 11] was 90% and the pest or weed control at 500 g/ha [2, 12] was 100%. The pest or weed control at 125 g/ha [2, 13] was 70%, the pest or weed control at 500 g/ha [2, 14] was 90% and the pest or weed control at 125 g/ha [3, 11] was 100%. The pest or weed control at 500 g/ha [3, 12] was 100%, the pest or weed control at 125 g/ha [3, 13] was 70% and the pest or weed control at 500 g/ha [3, 14] was 100%. The pest or weed control at 125 g/ha [4, 11] was 100%, the pest or weed control at 500 g/ha [4, 12] was 100% and the pest or weed control at 125 g/ha [4, 13] was 30%. It also gave a pest or weed control at 500 g/ha [4, 14] of 80%, a pest or weed control at 125 g/ha [5, 11] of 100% and a pest or weed control at 500 g/ha [5, 12] of 100%. The pest or weed control at 125 g/ha [5, 13] was 100%, the pest or weed control at 500 g/ha [5, 14] was 100% and the pest or weed control at 125 g/ha [6, 11] was 100%. The pest or weed control at 500 g/ha [6, 12] was 100%, the pest or weed control at 125 g/ha [6, 13] was 100% and the pest or weed control at 500 g/ha [6, 14] was 100%. It also gave a plant injury at 125 g/ha [7, 11] of 0%, a plant injury at 500 g/ha [7, 12] of 60% and a plant injury at 125 g/ha [7, 13] of 0%. For the same compound, the plant injury at 500 g/ha [7, 14] was 0%, the “Bermudagrass plant response rating (0 to 100 scale)” value [8, 15] was 90 and the pest or weed control at 31 g/ha ([8]; Cynodon dactylon, post-emergence, postemergence, scale 0 to 100, 0 is no effect, 100 is complete control, read-out: Plant response rating, Bermudagrass) was 80%. The pest or weed control at 125 g/ha ([8]; Cynodon dactylon, post-emergence, Postemergence, scale 0 to 100 (0 no effect, 100 complete control), read-out: Plant response rating, Bermudagrass) was 95%, the pest or weed control at 250 g/ha ([8]; Cynodon dactylon, post-emergence, Postemergence, 250 g ai/ha, scale 0 to 100 (0 no effect, 100 complete control), read-out: Plant response rating, Bermudagrass) was 95% and the pest or weed control at 31 g/ha ([8]; Cynodon dactylon, pre-emergence, Preemergence, scale 0 to 100 (0 no effect, 100 complete control), read-out: Plant response rating, Bermudagrass) was 95%. The pest or weed control at 62 g/ha ([8]; Cynodon dactylon, pre-emergence, Preemergence, 62 g ai/ha, scale 0 to 100, 0 no effect, 100 complete control, read-out: Plant response rating, Bermudagrass) was 95%, the pest or weed control at 125 g/ha ([8]; Cynodon dactylon, pre-emergence, Preemergence, scale 0 to 100, 0 no effect, 100 complete control, read-out: Plant response rating, Bermudagrass) was 100% and the “Bermudagrass plant response rating” value ([8]; Preemergence, 250 g ai/ha, 0 to 100 scale, 0 no effect, 100 complete control) was 100. The “Cocklebur plant response rating (0 to 100 scale)” value [9, 15] was 95, the “Cocklebur plant response rating” value [9, 16] was 100 and the pest or weed control at 31 g/ha ([9]; Xanthium strumarium, post-emergence, postemergence, scale 0 to 100, 0 is no effect, 100 is complete control, read-out: Plant response rating, Cocklebur) was 95%. For the same compound, the pest or weed control at 125 g/ha ([9]; Xanthium strumarium, post-emergence, Postemergence, scale 0 to 100 (0 no effect, 100 complete control), read-out: Plant response rating, Cocklebur) was 98%, the pest or weed control at 250 g/ha ([9]; Xanthium strumarium, post-emergence, Postemergence, 250 g ai/ha, scale 0 to 100 (0 no effect, 100 complete control), read-out: Plant response rating, Cocklebur) was 98% and the pest or weed control at 31 g/ha ([9]; Xanthium strumarium, pre-emergence, Preemergence, scale 0 to 100 (0 no effect, 100 complete control), read-out: Plant response rating, Cocklebur) was 45%. For the same compound, the pest or weed control at 62 g/ha ([9]; Xanthium strumarium, pre-emergence, Preemergence, 62 g ai/ha, scale 0 to 100, 0 no effect, 100 complete control, read-out: Plant response rating, Cocklebur) was 75%, the pest or weed control at 125 g/ha ([9]; Xanthium strumarium, pre-emergence, Preemergence, scale 0 to 100, 0 no effect, 100 complete control, read-out: Plant response rating, Cocklebur) was 90% and the “Wheat plant response rating (0 to 100 scale)” value [10, 15] was 15. The “Wheat plant response rating” value [10, 16] was 10, the plant injury at 125 g/ha ([10]; Triticum aestivum, post-emergence, Postemergence, scale 0 to 100 (0 no effect, 100 complete control), read-out: Plant response rating, Wheat) was 40% and the plant injury at 31 g/ha ([10]; Triticum aestivum, pre-emergence, Preemergence, 31 g ai/ha, scale 0 to 100 (0 no effect, 100 complete control), read-out: Plant response rating, Wheat) was 0%. For the same compound, the plant injury at 62 g/ha ([10]; Triticum aestivum, pre-emergence, Preemergence, 62 g ai/ha, scale 0 to 100 (0 no effect, 100 complete control), read-out: Plant response rating, Wheat) was 0% and the plant injury at 125 g/ha ([10]; Triticum aestivum, pre-emergence, Preemergence, scale 0 to 100, 0 no effect, 100 complete control, read-out: Plant response rating, Wheat) was 10%.
